Consider 13 compounds from publication PMC11284790, “Targeting Myeloperoxidase Ameliorates Gouty Arthritis: A Virtual Screening Success Story” (Journal of Medicinal Chemistry, 2024).

Experiment [1] in a line: Taurine chloroamine scavenger assay. Conditions: 15 min at 37 °C, TMB readout. On the procedure: Taurine chloramine was prepared by mixing hypochlorous acid (2.81 mM) with taurine (5 mM), cetyltrimethylammonium chloride (0.03%), NaCl (140 mM), and diethylenetriaminepentaacetic acid (100 μM) in phosphate buffer (20 mM, pH 7.4). The system was kept at 37 °C for 5 min for complete chloramine taurine formation. The compounds were added to this mixture and incubated for 15 min at 37 °C. Taurine chloramine was quantified by the oxidation of TMB (2 mM) catalyzed by iodide (100 μM).[33]

In experiment [2] the target is T1, Human leukocyte MPO (Homo sapiens, UniProt P05164). The experiment is described as follows: MPO chlorinating activity assay (taurine chloramine/TMB). In kind it is biochemical. Set-up: Human leukocyte MPO (EC 1.7.1.11) was purchased from Planta Natural Products; purchased Planta Natural Products (Vienna, Austria); host or cells: human leukocytes. The note with it: for IC50: pH 7.4; for chlorinating/peroxidatic activity inhibition ratio: ratio of % inhibition at 20 μM, ~1 indicates true enzyme inhibitor. On the procedure: Chlorinating activity was carried out in phosphate buffer (20 mM, pH 7.4). Compounds (20 μM) were dissolved in 0.03% DMSO, MPO (10 nM), diethylenetriaminepentaacetic acid (100 μM), cetyltrimethylammonium chloride (0.03%), NaCl (140 mM), and taurine (5 mM).[31] This mixture was incubated at 37 °C for 15 min before adding 40 μM hydrogen peroxide. The reaction ran for 8 min and was then stopped by catalase (20 μg/mL). Oxidation of TMB (2 mM) (3,3,5,5-tetramethylbenzidine) by taurine chloroamine catalyzed by iodide (100 μM) was quantified at 650 nm.[33] Results were expressed as a percentage of the control (vehicle). IC50 was calculated by nonlinear regression using the Hill equation present in GraphPad Prism 5 software.

Experiment [3] deals with T1, Human leukocyte MPO. Nature of the experiment: MPO peroxidatic activity assay (AmplexRed oxidation). The format is biochemical. Details: Human leukocyte MPO (EC 1.7.1.11) was purchased from Planta Natural Products; purchased Planta Natural Products (Vienna, Austria); host or cells: human leukocytes. As to the method: MPO peroxidase activity was kinetically monitored using the artificial peroxidase substrate AmplexRed, which is oxidized to resorufin and can be detected by fluorescence.[34] Reactions were carried out in phosphate buffer (50 mM, pH 7.4), MPO (100 pM), cetyltrimethylammonium chloride (0.03%), diethylenetriaminepentaacetic acid (100 μM), AmplexRed (30 μM), and compounds (20 μM in 0.3% DMSO). The reaction was started by adding 2 μM hydrogen peroxide. The reaction product was assessed by fluorescence at λex = 530 and λem = 580 nm. The initial velocity was calculated by the slope of the linear regression in the first minutes of reaction. Inhibition is represented as a percentage of the control (vehicle).

For another experiment, the system named is dHL-60 cells. Nature of the experiment: Cellular production of HOCl, PMA-activated dHL-60 cells. The format is cell-based, human. The note with it: 20 μM compound, 100 nM PMA, 1 h. As to the method: Human promyelocytic leukemic cells (HL-60) (BCRJ, RJ, Brazil) were cultivated in RPMI with fetal bovine serum (10%), penicillin (62 μg/mL), and streptomycin (100 μg/mL) at 37 °C in 5% CO2 atmosphere. HL-60 cells were differentiated to neutrophil-like (dHL-60) by DMSO (1.25%) during 4 days.[25]
(§1) Measurement of HOCl production by 1 × 10^6 dHL-60 or neutrophils was carried out in PBS (10 mM Na2HPO4, 2 mM KH2PO4, 0.5 mM MgCl2, 1 mM CaCl2, 140 mM NaCl, 5.5 mM dextrose, 100 μM diethylenetriaminepentaacetic acid, 5 mM taurine) in the presence of the compounds (20 μM in 0.3% DMSO) or 0.3% DMSO (control). Cells were activated with phorbol myristate acetate (100 nM) at 37 °C for 1 h. After incubation, cells were centrifuged at 1400 rpm for 10 min, and the supernatant was diluted threefold. Finally, 240 μL of this supernatant was added to 60 μL acetate buffer (400 mM, pH 5.4) containing NaI (100 μM) and TMB (2 mM in DMFO 10%). Taurine chloramine was quantified by TMB oxidation at 655 nm.[33] Inhibition of HOCl production was calculated as the percentage of the control (vehicle).

Experiment [4] relates to human peripheral blood neutrophils. The experiment is described as follows: Cellular production of HOCl, PMA-activated peripheral blood neutrophils. The note with it: 20 μM compound, 100 nM PMA, 1 h. The format is cell-based. On the procedure: Human neutrophils were obtained from healthy individuals as previously described.[24] The experiments were approved by the local ethics committee (CEPSH-ICB 1435/18).
as §1

Setting [5] is: 20 μM compound, 10 nM MPO, 140 mM NaCl, 5 mM taurine, 40 μM H2O2, pH 7.4, read-out: % Inhibition (at 20 μM) Chlorinating.
The mark [6] stands for this setting: supplementary csv copy of Table 1, read-out: % Inhibition (Chlorinating).
[7] abbreviates: 20 μM compound, 100 pM MPO, 30 μM AmplexRed, 2 μM H2O2, pH 7.4, read-out: % Inhibition (at 20 μM) Peroxidatic.
The mark [8] stands for this setting: supplementary csv copy of Table 1, read-out: % Inhibition (Peroxidatic).
[9] abbreviates: 20 μM compound, 10 nM MPO, 140 mM NaCl, 5 mM taurine, 40 μM H2O2, pH 7.4.
Setting [10] is: supplementary csv copy of Table 1.
Where [11] appears, read: 20 μM compound, 100 pM MPO, 30 μM AmplexRed, 2 μM H2O2, pH 7.4.

T1 sequence (P05164 279-745 limits assumed): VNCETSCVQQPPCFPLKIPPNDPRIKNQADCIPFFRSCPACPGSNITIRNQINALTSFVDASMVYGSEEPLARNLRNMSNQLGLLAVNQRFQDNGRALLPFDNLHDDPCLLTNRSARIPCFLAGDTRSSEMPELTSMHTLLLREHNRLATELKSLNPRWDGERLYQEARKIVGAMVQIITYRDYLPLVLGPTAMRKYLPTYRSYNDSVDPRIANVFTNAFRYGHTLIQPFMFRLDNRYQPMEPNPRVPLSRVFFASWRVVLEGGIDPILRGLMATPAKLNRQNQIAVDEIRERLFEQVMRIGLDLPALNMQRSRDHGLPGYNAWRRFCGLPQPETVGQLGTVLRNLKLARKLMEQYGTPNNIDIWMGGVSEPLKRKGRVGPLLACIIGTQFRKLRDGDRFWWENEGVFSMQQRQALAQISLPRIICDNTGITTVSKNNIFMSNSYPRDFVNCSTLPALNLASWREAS
T1 sequence (P05164 165-278 limits assumed): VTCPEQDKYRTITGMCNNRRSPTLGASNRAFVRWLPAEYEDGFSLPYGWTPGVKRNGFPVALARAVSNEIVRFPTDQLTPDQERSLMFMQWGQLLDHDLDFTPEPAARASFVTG

As for `CCCOc1ccc(C2C(C#N)=C(N)SC(N)=C2C#N)cc1OC` [RL26], the “scavenger activity toward taurine chloramine” value in experiment [1] was “decreased both taurine chloroamine”. For the same compound, 12.6 µM corresponded to half-maximal inhibition against Human leukocyte MPO [2] (10 nM MPO, 140 mM NaCl) (IC50). Further, the inhibition (as a rule, the change of the read-out against control, counted positive when it falls) at 20 µM at Human leukocyte MPO [2] (setting [5]) was determined as 81 ± 5.8%; at Human leukocyte MPO [2] (setting [6]), 81 ± 5.8%; on Human leukocyte MPO [3] (setting [7]), 78.7 ± 4.2%; at Human leukocyte MPO [3] (setting [8]), 78.7 ± 4.2%.

Consider `O=c1c2cnc3cc(C(F)(F)F)ccc3c2sc2nncn12` [RL25], for which the “% Inhibition (at 20 μM) Chlorinating” value on Human leukocyte MPO [2] (setting [9]) is “INACTIVE”. For the same compound, the “% Inhibition (Chlorinating)” value at Human leukocyte MPO [2] (setting [10]) is “INACTIVE”. The “% Inhibition (at 20 μM) Peroxidatic” value on Human leukocyte MPO [3] (setting [11]) is “INACTIVE”. Besides, the “% Inhibition (Peroxidatic)” value at Human leukocyte MPO [3] (setting [10]) is on record as “INACTIVE”.

`CC1CCc2sc3c(c2C1)c1ncnn1c1nnc(S)n31` (centres unmarked) [RL9]: the inhibition at 20 µM is 92 ± 3.2% on Human leukocyte MPO [2] (setting [5]), 92 ± 3.2% on Human leukocyte MPO [2] (setting [6]), 42.1 ± 7.9% at Human leukocyte MPO [3] (setting [7]) and 42.1 ± 7.9% on Human leukocyte MPO [3] (setting [8]). For the same compound, the “chlorinating/peroxidatic activity inhibition ratio” value at Human leukocyte MPO [2] was “high”.

Take `COc1ccc(C(=O)Nc2ccc(-c3nnc(S)o3)cc2)cc1` [RL18]: the “scavenger activity toward taurine chloramine” value in experiment [1] is “scavenger capacity”. Besides, the “inhibition of HOCl production in dHL-60 cells” value with dHL-60 cells is reported as “no effect”. Also, in experiment [4], the “inhibition of HOCl production in peripheral blood neutrophils” value was “no effect”. Besides, the IC50 (in general, the point on the concentration scale where inhibition reaches its midpoint) on Human leukocyte MPO [2] (10 nM MPO, 140 mM NaCl) is 12 µM. The “% Inhibition (at 20 μM) Chlorinating” value at Human leukocyte MPO [2] (setting [9]) is listed as “active against chlorinating activity only”. For the same compound, the inhibition at 20 µM on Human leukocyte MPO [2] (setting [5]) and on Human leukocyte MPO [2] (setting [6]) was 73 ± 19.7% in each case. Also, the “chlorinating/peroxidatic activity inhibition ratio” value on Human leukocyte MPO [2] is “high”. Moreover, at Human leukocyte MPO [3] (setting [11]), the “% Inhibition (at 20 μM) Peroxidatic” value was “INACTIVE”. Besides, at Human leukocyte MPO [3] (setting [10]), the “% Inhibition (Peroxidatic)” value is reported as “INACTIVE”.

As for `CCc1n[nH]c2c1C(c1ccc(O)c(OC)c1)C(C#N)=C(N)O2` (centres unmarked) [RL23], the inhibition at 20 µM is 57.8 ± 13.9% on Human leukocyte MPO [2] (setting [5]), 57.8 ± 13.9% at Human leukocyte MPO [2] (setting [6]), 25.1 ± 3.2% on Human leukocyte MPO [3] (setting [7]) and 25.1 ± 3.2% at Human leukocyte MPO [3] (setting [8]).

`COc1cc(/C=N/NC(=O)c2ccoc2C)ccc1OCCN1CCCCC1` [RL15]: the “% Inhibition (at 20 μM) Chlorinating” value at Human leukocyte MPO [2] (setting [9]) is on record as “INACTIVE”. In addition, at Human leukocyte MPO [2] (setting [10]), the “% Inhibition (Chlorinating)” value is reported as “INACTIVE”.

Consider `CCCNc1ncnc2cc(-c3ccc(OC)cc3)sc12` [RL28], for which the “% Inhibition (at 20 μM) Chlorinating” value at Human leukocyte MPO [2] (setting [9]) is “INACTIVE”. At Human leukocyte MPO [2] (setting [10]), the “% Inhibition (Chlorinating)” value is given as “INACTIVE”. Also, at Human leukocyte MPO [3] (setting [11]), the “% Inhibition (at 20 μM) Peroxidatic” value is on record as “INACTIVE”. Also, the “% Inhibition (Peroxidatic)” value on Human leukocyte MPO [3] (setting [10]) is listed as “INACTIVE”.

With `O=C1ON=C(c2ccccc2)/C1=C\c1cccc(O)c1` [RL17], the inhibition at 20 µM at Human leukocyte MPO [2] (setting [5]) was 63 ± 6.2%; at Human leukocyte MPO [2] (setting [6]) it was 63 ± 6.2%; at Human leukocyte MPO [3] (setting [7]) it was 24 ± 4.1%; on Human leukocyte MPO [3] (setting [8]) it was 24 ± 4.1%. The “chlorinating/peroxidatic activity inhibition ratio” value at Human leukocyte MPO [2] is “high”.

As for `CC1=Nc2ccc(Cl)cc2-c2[nH]c3ccccc3c2N1` [RL1], the inhibition at 20 µM on Human leukocyte MPO [2] (setting [5]) was found to be 50.2 ± 4%; on Human leukocyte MPO [2] (setting [6]), 50.2 ± 4%; on Human leukocyte MPO [3] (setting [7]), 81 ± 15.1%; on Human leukocyte MPO [3] (setting [8]), 81 ± 15.1%.

Consider `CC1CCCc2sc3nc(S)n(N)c(=O)c3c21` (centres unmarked) [RL27], for which the inhibition at 20 µM at Human leukocyte MPO [2] (setting [5]) stood at 18.6 ± 1.6%; on Human leukocyte MPO [2] (setting [6]), 18.6 ± 1.6%; at Human leukocyte MPO [3] (setting [7]) it was 29.5 ± 2.9%; at Human leukocyte MPO [3] (setting [8]), 29.5 ± 2.9%.

Regarding `N#CC1=C(N)Oc2c(c(=O)sc3ccccc23)C1c1ccc(F)cc1` (centres unmarked) [RL20], the “% Inhibition (at 20 μM) Chlorinating” value on Human leukocyte MPO [2] (setting [9]) is listed as “INACTIVE”. At Human leukocyte MPO [2] (setting [10]), the “% Inhibition (Chlorinating)” value is on record as “INACTIVE”. For the same compound, the “% Inhibition (at 20 μM) Peroxidatic” value on Human leukocyte MPO [3] (setting [11]) is reported as “inhibited exclusively the peroxidatic assay”. The inhibition at 20 µM on Human leukocyte MPO [3] (setting [7]) and at Human leukocyte MPO [3] (setting [8]) was 34 ± 4.3% in each case.

For the compound `CCOC(=O)C1=C(N)Oc2cc(O)ccc2C1c1ccc(F)cc1F` (centres unmarked) [RL24], the inhibition at 20 µM was determined as 40.1 ± 5.5% at Human leukocyte MPO [2] (setting [5]), 40.1 ± 5.5% on Human leukocyte MPO [2] (setting [6]), 59.1 ± 2.9% on Human leukocyte MPO [3] (setting [7]) and 59.1 ± 2.9% at Human leukocyte MPO [3] (setting [8]).

`CCOC(=O)C(Cc1ccc(O)cc1)NC1=CC(=O)C(=O)c2ccccc21` (centres unmarked) [RL16]: the “% Inhibition (at 20 μM) Chlorinating” value on Human leukocyte MPO [2] (setting [9]) is “INACTIVE”. Moreover, the “% Inhibition (Chlorinating)” value at Human leukocyte MPO [2] (setting [10]) is on record as “INACTIVE”. Further, the “% Inhibition (at 20 μM) Peroxidatic” value at Human leukocyte MPO [3] (setting [11]) was “inhibited exclusively the peroxidatic assay”. The inhibition at 20 µM on Human leukocyte MPO [3] (setting [7]) and on Human leukocyte MPO [3] (setting [8]) was 67.1 ± 8.1% each time.
